In ChEMBL document CHEMBL1134222, “The identification of a potent, water soluble inhibitor of lipoprotein-associated phospholipase A2” (Bioorg Med Chem Lett, 2001):

Key:
[1] = Concentration required for inhibition of human serine dependent Phospholipase A2
[2] = tested on: Platelet-activating factor acetylhydrolase (Rattus norvegicus); assay: Compound was tested for inhibition of Lipoprotein associated phospholipase A2 in rat; settings: concentration not given here
[3] = species on record: Rattus norvegicus; assay: Compound was tested for its percent CNS penetration in rat; format: functional, Central nervous system
[4] = tested on: Rattus norvegicus; assay: Compound was tested for liver blood flow after intravenous administration in rat; format: functional
[5] = Rapid clearance after intravenous administration in rat was determined; format: ADME, organism-based; settings: blood, read-out: CLb
[6] = species on record: Homo sapiens; assay: Compound was tested for inhibition of plasma enzyme in whole human plasma at concentration 100 nM; format: functional

| IC50 [1] [nM] | SMILES | other results |
| --- | --- | --- |
| 4 | CCCCCCCCCCCCN(C)C(=O)Cn1cc(Cc2cnc(=O)n(CC(=O)OCC)c2)c(=O)nc1SCc1ccc(F)cc1 | – |
| 3 | CCCCCCCCN(C)C(=O)Cn1cc(Cc2cnc(=O)n(CC(=O)N3CCN(C)CC3)c2)c(=O)nc1SCc1ccc(F)cc1 | – |
| 5 | CCCCCCCCN(C)C(=O)Cn1cc(Cc2cnc(=O)n(CC(=O)N3CCN(C(C)=O)CC3)c2)c(=O)nc1SCc1ccc(F)cc1 | – |
| 1 | CCCCCCCCCCCCN(C)C(=O)Cn1cc(Cc2cnc(=O)n(CC(=O)O)c2)c(=O)nc1SCc1ccc(F)cc1 | inhibition [2]: 83%; Activity [3]: 37%; Activity [4]: 85%; clearance [5]: 76 mL/min/kg |
| 27 | CCCCCCCCN(C)C(=O)Cn1cc(Cc2cnc(=O)n(C)c2)c(=O)nc1SCc1ccc(F)cc1 | – |
| 4 | CCCCCCCCN(C)C(=O)Cn1cc(Cc2cnc(O)nc2)c(=O)nc1SCc1ccc(F)cc1 | Activity [3]: 7% |
| 7 | CCCCCCCCNC(=O)Cn1cc(Cc2cncnc2)c(=O)nc1SCc1ccc(F)cc1 | – |
| 14 | CCCCCCCCN(C)C(=O)Cn1cc(Cc2cnc(=O)n(CC(=O)O)c2)c(=O)nc1SCc1ccc(F)cc1 | Activity [3]: 10% |
| 5 | CCCCCCCCN(C)C(=O)Cn1cc(Cc2cnc(=O)n(CCO)c2)c(=O)nc1SCc1ccc(F)cc1 | – |
| 8 | CCCCCCCCN(C)C(=O)Cn1cc(Cc2cnc(=O)n(CC(=O)NCCO)c2)c(=O)nc1SCc1ccc(F)cc1 | – |
| 0.6 | CCCCCCCCCCCCN(C)C(=O)Cn1cc(Cc2cnc(=O)n(CC(=O)NCCO)c2)c(=O)nc1SCc1ccc(F)cc1 | inhibition at 0.1 µM [6]: 79% |
| 0.7 | CCCCCCCCCCCCN(C)C(=O)Cn1cc(Cc2cnc(=O)n(CC(=O)N3CCOCC3)c2)c(=O)nc1SCc1ccc(F)cc1 | Activity [3]: <7%; inhibition at 0.1 µM [6]: 80% |
| 75 | CCCCCCCCN(C)C(=O)Cn1cc(Cc2cnc(=O)n(CC(=O)OCC)c2)c(=O)nc1SCc1ccc(F)cc1 | – |
| 11 | CCCCCCCCN(C)C(=O)Cn1cc(Cc2cnc(=O)n(CC(=O)NCCC)c2)c(=O)nc1SCc1ccc(F)cc1 | – |
| 5 | CCCCCCCCCCCCN(C)C(=O)Cn1cc(Cc2cnc(=O)n(C)c2)c(=O)nc1SCc1ccc(F)cc1 | – |
| 3 | CCCCCCCCN(C)C(=O)Cn1cc(Cc2cnc(OCC)nc2)c(=O)nc1SCc1ccc(F)cc1 | – |
| 0.4 | CCCCCCCCCCCCN(C)C(=O)Cn1cc(Cc2cnc(=O)n(CC(=O)NC)c2)c(=O)nc1SCc1ccc(F)cc1 | inhibition at 0.1 µM [6]: 80% |
| 20 | CCCCCCCCN(C)C(=O)Cn1cc(Cc2cnc(=O)n(CC)c2)c(=O)nc1SCc1ccc(F)cc1 | – |
| 10 | CCCCCCCCN(C)C(=O)Cn1cc(Cc2cnc(=O)n(CC(=O)N3CCOCC3)c2)c(=O)nc1SCc1ccc(F)cc1 | – |
| 1 | CCCCCCCCCCCCN(C)C(=O)Cn1cc(Cc2cnc(OC)nc2)c(=O)nc1SCc1ccc(F)cc1 | – |
| 0.4 | CCCCCCCCCCCCN(C)C(=O)Cn1cc(Cc2cnc(=O)n(CC(=O)N3CCNC(=O)C3)c2)c(=O)nc1SCc1ccc(F)cc1 | – |
| – | CCCCCCCCCCCCN(C)C(=O)Cn1cc(Cc2cncnc2)c(=O)nc1SCc1ccc(F)cc1 | Activity [3]: <2% |
| 2 | CCCCCCCCN(C)C(=O)Cn1cc(Cc2cnc(=O)n(CC(=O)N3CCNC(=O)C3)c2)c(=O)nc1SCc1ccc(F)cc1 | – |
| 4 | CCCCCCCCN(C)C(=O)Cn1cc(Cc2cnc(OC)nc2)c(=O)nc1SCc1ccc(F)cc1 | – |
| 7 | CCCCCCCCN(C)C(=O)Cn1cc(Cc2cnc(OCc3ccccc3)nc2)c(=O)nc1SCc1ccc(F)cc1 | – |
| 1 | CCCCCCCCCCCCN(C)C(=O)Cn1cc(Cc2cnc(=O)n(CCO)c2)c(=O)nc1SCc1ccc(F)cc1 | – |
| 15 | CCCCCCCCN(C)C(=O)Cn1cc(Cc2cncnc2)c(=O)nc1SCc1ccc(F)cc1 | – |
| 0.9 | CCCCCCCCCCCCN(C)C(=O)Cn1cc(Cc2cnc(O)nc2)c(=O)nc1SCc1ccc(F)cc1 | – |
| 6 | CCCCCCCCN(C)C(=O)Cn1cc(Cc2cnc(=O)n(CC(=O)NC)c2)c(=O)nc1SCc1ccc(F)cc1 | Activity [3]: <7% |
